The results in this text go back to ChEMBL document CHEMBL1151449, “In vitro activity of DC-159a, a new broad-spectrum fluoroquinolone, compared with that of other agents against drug-susceptible and -resistant pneumococci” (2008).

As usually defined, the MIC is the least concentration at which growth counts as inhibited. Read a high MIC as a less susceptible organism. As usually defined, the MIC50 is an inhibitory concentration at the 50% level, which refers to growth in some studies and to a panel of isolates in others. Higher therefore signals weaker potency. As a reminder, the MIC90 is an inhibitory concentration at the 90% level, which refers to growth in some studies and to a panel of isolates in others.

In brackets after ≈: the same amount, converted by molar mass.

In assay [1] the test system is Streptococcus pneumoniae. Nature of the assay: Antibacterial activity against penicillin-resistant and quinolone-susceptible Streptococcus pneumoniae HMC 3583 expressing mefA by broth microdilution method. Format: functional. In general terms: Dilution methods test growth across graded concentrations, often in twofold steps.
Assay [2] relates to Streptococcus pneumoniae. The experiment in a line: Antibacterial activity against azithromycin-resistant Streptococcus pneumoniae […] by agar dilution method. Format: functional.
Assay [3] relates to Streptococcus pneumoniae. Nature of the assay: Antibacterial activity against penicillin-resistant and quinolone-susceptible Streptococcus pneumoniae HMC 228 expressing ermB and harboring S81F mutation in quinolone-resistant determining regions of GyrA gene, S79Y mutation in QRDR of ParC gene and I460V mutation in QRDR of ParE gene after 38 passages with gatifloxacin measured after 10 daily antibiotic-free subculturing by multi-step resistance selection technique. The format is functional.

The subject of assay [4] is Streptococcus pneumoniae. The experiment in a line: Antibacterial activity against quinolone-susceptible and penicillin-intermediate Streptococcus pneumoniae HMC 5048 expressing mefA by broth microdilution method. Format: functional.
The test system of assay [5] is Streptococcus pneumoniae. The experiment in a line: Antibacterial activity against penicillin-, macrolide-susceptible and quinolone-resistant Streptococcus pneumoniae HMC 1074 harboring S81F mutation in quinolone-resistant determining regions of GyrA gene, S79F mutation in QRDR of ParC gene and I460V mutation in QRDR of ParE gene by broth microdilution method. The format is functional.

The test system of assay [6] is Streptococcus pneumoniae. Nature of the assay: Antibacterial activity against penicillin-resistant and quinolone-susceptible Streptococcus pneumoniae HMC 3583 expressing mefA after 50 passages by broth microdilution method. The format is functional.
Assay [7] has as its system Streptococcus pneumoniae. The experiment in a line: Antibacterial activity against penicillin-resistant and quinolone-susceptible Streptococcus pneumoniae HMC 3583 expressing mefA and harboring S81F mutation in quinolone-resistant determining regions of GyrA gene, D83N mutation in QRDR of ParC gene and I460V mutation in QRDR of ParE gene after 44 passages with levofloxacin measured after 10 daily antibiotic-free subculturing by multi-step resistance selection technique. The format is functional.

Assay [8] has as its system Streptococcus pneumoniae. Nature of the assay: Antibacterial activity against penicillin-susceptible, quinolone-resistant Streptococcus pneumoniae HMC 1072 expressing ermB and harboring S81F mutation in quinolone-resistant determining regions of GyrA gene, S79Y mutation in QRDR of ParC gene and I460V mutation in QRDR of ParE gene after 50 passages by broth microdilution method. Format: functional.

The test system of assay [9] is Streptococcus pneumoniae. The experiment in a line: Antibacterial activity against Streptococcus pneumoniae HMC 1059 harboring S81F mutation in quinolone-resistant determining regions of GyrA gene, S79F, K137N mutation in QRDR of ParC gene and I460N mutation in QRDR of ParE gene by agar dilution method. Format: functional. (In general: In agar dilution, organisms are placed on agar that contains the substance at set levels.)

The test system of assay [10] is Streptococcus pneumoniae. Nature of the assay: Antibacterial activity against penicillin-resistant and quinolone-susceptible Streptococcus pneumoniae HMC 228 expressing ermB after 28 passages by broth microdilution method. The format is functional.
Assay [11] deals with Streptococcus pneumoniae. Nature of the assay: Antibacterial activity against Streptococcus pneumoniae HMC 1146 harboring S81F mutation in quinolone-resistant determining regions of GyrA gene, and D435N mutation in QRDR of ParE gene by agar dilution method. Format: functional.
The subject of assay [12] is Streptococcus pneumoniae. The experiment in a line: Antibacterial activity against penicillin-resistant and quinolone-susceptible Streptococcus pneumoniae HMC 3583 expressing mefA after 46 passages by broth microdilution method. The format is functional.
Assay [13] deals with Streptococcus pneumoniae. Nature of the assay: Antibacterial activity against Streptococcus pneumoniae HMC 1150 harboring S81C mutation in quinolone-resistant determining regions of GyrA gene, S79F mutation in QRDR of ParC gene and I460V mutation in QRDR of ParE gene by agar dilution method. The format is functional.
Assay [14] deals with Streptococcus pneumoniae. The experiment in a line: Antibacterial activity against Streptococcus pneumoniae HMC 1139 harboring S81F mutation in quinolone-resistant determining regions of GyrA gene, S79F, K137N mutation in QRDR of ParC gene and I460V mutation in QRDR of ParE gene by agar dilution method. Format: functional.
Assay [15] has as its system Streptococcus sp. Nature of the assay: Antibacterial activity against Streptococcus sp. by agar dilution method. Format: functional.
Assay [16] relates to Streptococcus pneumoniae. The experiment in a line: Antibacterial activity against penicillin-resistant and quinolone-susceptible Streptococcus pneumoniae HMC 228 expressing ermB after 38 passages by broth microdilution method. Format: functional.
The test system of assay [17] is Streptococcus sp. Nature of the assay: Antibacterial activity against levofloxacin-intermediate -resistant Streptococcus sp. by agar dilution method. The format is functional.
Assay [18] relates to Streptococcus pneumoniae. Nature of the assay: Antibacterial activity against penicillin-resistant and quinolone-susceptible Streptococcus pneumoniae HMC 3583 expressing mefA after 49 passages by broth microdilution method. The format is functional.
Assay [19] relates to Streptococcus pneumoniae. Nature of the assay: Antibacterial activity against penicillin-resistant and quinolone-susceptible Streptococcus pneumoniae HMC 228 expressing ermB after 50 passages by broth microdilution method. The format is functional.
Assay [20] has as its system Streptococcus pneumoniae. Nature of the assay: Antibacterial activity against macrolide-, quinolone-susceptible and penicillin-intermediate Streptococcus pneumoniae HMC 100 after 42 passages by broth microdilution method. Format: functional.
Assay [21] has as its system Streptococcus pneumoniae. Nature of the assay: Antibacterial activity against penicillin-, macrolide-susceptible and quinolone-resistant Streptococcus pneumoniae HMC 1074 harboring S81F mutation in quinolone-resistant determining regions of GyrA gene, S79F mutation in QRDR of ParC gene and I460V mutation in QRDR of ParE gene after 27 passages by broth microdilution method. Format: functional.

Assay [22] has as its system Streptococcus pneumoniae. Nature of the assay: Antibacterial activity against penicillin-resistant and quinolone-susceptible Streptococcus pneumoniae HMC 3583 expressing mefA after 41 passages by broth microdilution method. The format is functional.
Assay [23] concerns Streptococcus pneumoniae. The experiment in a line: Antibacterial activity against penicillin-, macrolide- and quinolone-susceptible Streptococcus pneumoniae HMC 63 after 34 passages by broth microdilution method. The format is functional.
Assay [24] relates to Streptococcus pneumoniae. The experiment in a line: Antibacterial activity against macrolide-, quinolone-susceptible and penicillin-intermediate Streptococcus pneumoniae HMC 99 after 41 passages by broth microdilution method.
Assay [25] has as its system Streptococcus pneumoniae. The experiment in a line: Antibacterial activity against penicillin-resistant and quinolone-susceptible Streptococcus pneumoniae HMC 228 expressing ermB after 36 passages by broth microdilution method. The format is functional.
Assay [26] deals with Streptococcus pneumoniae. Nature of the assay: Antibacterial activity against macrolide-, quinolone-susceptible and penicillin-intermediate Streptococcus pneumoniae HMC 100 after 22 passages by broth microdilution method. The format is functional.

Take `CC[C@H]1OC(=O)[C@H](C)[C@@H](O[C@H]2C[C@@](C)(OC)[C@@H](O)[C@H](C)O2)[C@H](C)[C@@H](O[C@@H]2O[C@H](C)C[C@H](N(C)C)[C@H]2O)[C@](C)(O)C[C@@H](C)CN(C)[C@H](C)[C@@H](O)[C@]1(C)O` [AZITHROMYCIN]: the MIC is 2 µg/mL (≈ 2.67 µM) in the assay with Streptococcus pneumoniae [1]; 2 µg/mL (≈ 2.67 µM) in the assay with Streptococcus pneumoniae [3]; 4 µg/mL (≈ 5.34 µM) against Streptococcus pneumoniae [4]; 0.03 µg/mL (≈ 0.0401 µM) in the assay with Streptococcus pneumoniae [5]; 4 µg/mL (≈ 5.34 µM) in the assay on Streptococcus pneumoniae [6]; 2 µg/mL (≈ 2.67 µM) in the assay with Streptococcus pneumoniae [7]. For the same compound, the MIC50 in the assay with Streptococcus pneumoniae [2] was greater than 64 µg/mL.
With `COc1c(N2CCNC(C)C2)c(F)cc2c(=O)c(C(=O)O)cn(C3CC3)c12` (configuration not stated) [GATIFLOXACIN], the minimal inhibitory concentration (MIC) against Streptococcus pneumoniae [1] amounted to 0.25 µg/mL (≈ 0.666 µM); in the assay on Streptococcus pneumoniae [8], 8 µg/mL (≈ 21.3 µM); in the assay on Streptococcus pneumoniae [9] it was 8 µg/mL (≈ 21.3 µM); against Streptococcus pneumoniae [10], 4 µg/mL (≈ 10.7 µM); in the assay with Streptococcus pneumoniae [11] it was 4 µg/mL (≈ 10.7 µM); in the assay on Streptococcus pneumoniae [3] it was 4 µg/mL (≈ 10.7 µM). Further, the MIC with Streptococcus pneumoniae [4] is 0.25 µg/mL (≈ 0.666 µM); with Streptococcus pneumoniae [12] it was 4 µg/mL (≈ 10.7 µM); in the assay with Streptococcus pneumoniae [13] it was 4 µg/mL (≈ 10.7 µM); against Streptococcus pneumoniae [5], 4 µg/mL (≈ 10.7 µM); with Streptococcus pneumoniae [7], 4 µg/mL (≈ 10.7 µM); against Streptococcus pneumoniae [14], 8 µg/mL (≈ 21.3 µM). The same compound displayed an MIC50 with Streptococcus pneumoniae [2] of 0.5 µg/mL (≈ 1.33 µM). Further, the MIC90 in the assay with Streptococcus pneumoniae [2] worked out at 0.5 µg/mL (≈ 1.33 µM).
Turning to `COc1c(N2CC3(CC3)[C@](C)(N)C2)c(F)cc2c(=O)c(C(=O)O)cn([C@@H]3C[C@@H]3F)c12.O`, the minimum inhibitory concentration (MIC) with Streptococcus pneumoniae [1] is 0.12 µg/mL; in the assay with Streptococcus pneumoniae [8], 1 µg/mL; against Streptococcus pneumoniae [9], 1 µg/mL; in the assay with Streptococcus pneumoniae [11] it was 1 µg/mL; with Streptococcus pneumoniae [3], 1 µg/mL; in the assay on Streptococcus pneumoniae [16] it was 1 µg/mL. Further, the minimal inhibitory concentration (MIC) against Streptococcus pneumoniae [4] was 0.12 µg/mL; against Streptococcus pneumoniae [13], 0.5 µg/mL; in the assay with Streptococcus pneumoniae [18], 1 µg/mL; in the assay on Streptococcus pneumoniae [5], 1 µg/mL; against Streptococcus pneumoniae [19], 1 µg/mL; with Streptococcus pneumoniae [6], 1 µg/mL. For the same compound, the MIC against Streptococcus pneumoniae [7] and with Streptococcus pneumoniae [14] was 1 µg/mL throughout. Besides, the MIC90 is 0.125 µg/mL against Streptococcus sp. [15], 0.12 µg/mL with Streptococcus pneumoniae [2] and 1 µg/mL against Streptococcus sp. [17]. Also, the MIC50 with Streptococcus pneumoniae [2] was determined as 0.12 µg/mL.
`CO/N=C1\CN(c2nc3c(cc2F)c(=O)c(C(=O)O)cn3C2CC2)CC1CN` (configuration not stated) [GEMIFLOXACIN]: the MIC was 0.03 µg/mL (≈ 0.077 µM) against Streptococcus pneumoniae [1]; 1 µg/mL (≈ 2.57 µM) against Streptococcus pneumoniae [8]; 1 µg/mL (≈ 2.57 µM) with Streptococcus pneumoniae [20]; 0.5 µg/mL (≈ 1.28 µM) in the assay with Streptococcus pneumoniae [9]; 0.5 µg/mL (≈ 1.28 µM) against Streptococcus pneumoniae [11]; greater than 64 µg/mL in the assay on Streptococcus pneumoniae [3]. In addition, the minimal inhibitory concentration (MIC) worked out at 0.03 µg/mL (≈ 0.077 µM) in the assay with Streptococcus pneumoniae [4]; 4 µg/mL (≈ 10.3 µM) against Streptococcus pneumoniae [21]; 0.25 µg/mL (≈ 0.642 µM) with Streptococcus pneumoniae [13]; 0.25 µg/mL (≈ 0.642 µM) against Streptococcus pneumoniae [5]; 0.25 µg/mL (≈ 0.642 µM) against Streptococcus pneumoniae [22]; 0.5 µg/mL (≈ 1.28 µM) against Streptococcus pneumoniae [23]. For the same compound, the minimum inhibitory concentration (MIC) with Streptococcus pneumoniae [19], with Streptococcus pneumoniae [7] and in the assay on Streptococcus pneumoniae [14] was 0.25 µg/mL (≈ 0.642 µM) in each case. This compound came in with an MIC50 with Streptococcus pneumoniae [2] of 0.03 µg/mL (≈ 0.077 µM). In the assay with Streptococcus pneumoniae [2], this compound displayed an MIC90 of 0.06 µg/mL (≈ 0.154 µM).
As for `COc1c(N2C[C@@H]3CCCN[C@@H]3C2)c(F)cc2c(=O)c(C(=O)O)cn(C3CC3)c12` [MOXIFLOXACIN], the MIC turned out to be 4 µg/mL (≈ 9.96 µM) with Streptococcus pneumoniae [24]; 4 µg/mL (≈ 9.96 µM) in the assay on Streptococcus pneumoniae [8]; 4 µg/mL (≈ 9.96 µM) against Streptococcus pneumoniae [9]; 2 µg/mL (≈ 4.98 µM) with Streptococcus pneumoniae [11]; 2 µg/mL (≈ 4.98 µM) in the assay with Streptococcus pneumoniae [25]; 4 µg/mL (≈ 9.96 µM) against Streptococcus pneumoniae [3]. Further, the MIC against Streptococcus pneumoniae [13] stood at 1 µg/mL (≈ 2.49 µM); against Streptococcus pneumoniae [26], 2 µg/mL (≈ 4.98 µM); in the assay with Streptococcus pneumoniae [6], 0.5 µg/mL (≈ 1.25 µM); in the assay with Streptococcus pneumoniae [7], 4 µg/mL (≈ 9.96 µM); against Streptococcus pneumoniae [14] it was 4 µg/mL (≈ 9.96 µM).
